Reference: patent US20240083933A1, “DISACCHARIDES FOR TREATING BONE DISEASES” (UNIVERSITE DE PICARDIE JULES VERNE, priority 2020, published 2024)
Values joined by “and” are separate entries in the source; they are usually repeats but may differ in a detail not shown here. Identical values can stand only once.

Legend:
[1] = tested on: smooth muscle cells; test: Calcium production by smooth muscle cells; format: cell-based; settings: non-calcifying control condition; DP2 5-50 μM (FIG. 5)
Description: FIG. […]
This therefore reinforces the hypothesis that DP2 will not induce any calcification on cells other than the osteoblastic cells.

[2] = Acetate migration DP2/DP2′ in solution (stability); format: physicochemical; settings: in methanol
Protocol: The compound DP2′ was extracted from the DP2-DP2′ mixture which is formed when the compound DP2 is dissolved in water. The compound DP2′ has been separated by preparative HPLC chromatography with water as elution solvent.
The inventors have observed that when the compound DP2′ was in water, the delocalization of the acetate group was also present, but with very slow kinetics compared to the DP2→DP2′ reaction. Thus, a solution of DP2′ in water which is left to rest contains, after 44 days, 10 to 15% of DP2. The DP2′ therefore remains alone in the water for a given duration which is quite long. It is therefore possible to test the biological effect of DP2′ in solution in water.
Similarly, the inventors have observed that the kinetics of the DP2→DP2′ reaction is such that it is also possible to test the biological activity of the compound DP2 alone after extraction of the formed compound DP2′. Thus, the two compounds DP2 and DP2′ can coexist or not in water for a given duration.
In methanol, for example, the compound DP2 is therefore alone.
There is about ⅔ of DP2R2 for ⅓ of DP2′. The compound DP2′ comes from a migration of the acetate group (R2) on the 30H position. The compound DP2′ could be isolated and synthesized as previously indicated. […]

[3] = tested on: HOb cells; test: Cytotoxicity, WST-1 test; format: cell-based, human; settings: 30 μM, culture or mineralizing medium, D2, D4, D7, D14
Protocol: The toxicity of DP2 has also been studied by another cell viability test: WST-1 (a tetrazolium salt). The HOb cells were seeded in 48-well plates (10,000 cells per well), two days later, the cells were treated with DP2 30 μM and the WST-1 test was carried out on D2, D4, D7 and D14 post-treatment.
At the end of the treatment, 100 μl of the diluted WST-1 solution (Roche Diagnostics) was added to each well and the plate is incubated at 37° C. with 5% CO2 for 1 h. The cell proliferation induces an increase in the activity of mitochondrial dehydrogenases, which cleaves the tetrazolium salt into formazan. The amount of formazan dye was quantified by measuring the absorbance of dye at 450 nm (Envision, PerkinElmer). The results are expressed as percentage of viability in comparison to the untreated control condition.
Before determining whether our molecule alters the survival of osteoblastic cells, its cytotoxicity was tested on the HOb cells by the MTT and WST-1 tests. The cells were treated with DP2 at 30 μM with the culture medium (Ctrl) or the mineralizing medium (Min) for 2, 4, 7 and 14 days (D).

[4] = tested on: HOb cells; test: Calcium assay (pro-calcifying activity, mineralization) on human primary osteoblastic cells; format: cell-based; settings: for percentage of mineralization of the HOb cells / increase in calcification relative to the mineralizing condition: 14 days; for percentage of mineralization of the HOb cells: mineralizing conditions; for increase in calcification relative to the mineralizing condition: HOb
Protocol: For all experiments, a mouse pre-osteoblastic cell line (MC3T3-E1, ATCC) and human primary osteoblastic cells (HOb, Promocell) were used. The mouse pre-osteoblastic cells were cultured in 75 cm^2 flasks, containing 15 mL of α-MEM medium (M4526, SIGMA) and 10% fetal calf serum (FCS), containing 1% Penicillin/Streptomycin antibiotics and 1% glutamine. Similarly, human HOb cells were cultured in 75 cm 2 flasks containing 15 mL of proliferation medium (Human Osteoblast Proliferation Medium, PromoCell). The cells are maintained in the oven at 37° C., with 5% CO2 and 90% humidity. The medium was changed every three days.
MC3T3-E1 cells were seeded in 6-well plates at 63,700 cells/well to be treated in order to extract RNA or for alkaline phosphatase enzymatic activity assay and in 48-well plates for the calcium assay at 5250 cells/well. The HOb cells were seeded at 182,000 cells/well in 6-well plates for the extraction of RNA or for the alkaline phosphatase enzymatic activity assay; at 15,000 cells/well in 48-well plates for the calcium assay; at 10,000 cells/well in 48-well plates for the MTT test or the WST-1 test and at 100,000 cells/well in 6-well plates for the protein extraction or for the fluorescence.
In order to induce the mineralization, the MC3T3-E1 cells were treated with α-MEM medium containing 5% FCS to which 10 mM of β-glycerophosphate and 50 μg/mL of ascorbic acid are added. The HOb cells were treated with the “Osteoblast mineralization medium” (Promocell). […] After filtration, the cells were treated with the respective media (500 μL per well of the 48-well plate and 2 mL per well of the 6-well plate).
The calcification has also been studied on human osteoblastic cells (Hob, PromoCell, Heidelberg, Germany). They are isolated from femoral trabecular bone tissues.

[5] = tested on: HOb cells; test: Alkaline phosphatase (ALP) enzymatic activity assay, HOb; format: cell-based, human; settings: 7 days post-treatment, 30 μM
Description: (§1) ALP is an enzyme synthesized by osteoblasts. It hydrolyses phosphoric esters which inhibit the mineralization by releasing a hydroxyl group and a phosphate. The osteoblasts produce matrix vesicles, reservoirs of alkaline phosphatases and ions, which, when released into the extracellular medium, would initiate the mineralization of the osteoid tissue by promoting the local concentrations of calcium ions and phosphates. Cells have been seeded in 6-well plates at 63700 cells/well for MC3T3-E1 and at 182000 cells/well for HOb.
(§2) After the PBS rinses, 50 μl of ALP Assay Buffer were added to the wells, the bottom of the wells was scraped and then the 50 μl were taken. A centrifugation for 3 minutes at 13000 G was carried out to remove the insoluble material. In a 96-well plate, 10 μl of each sample to be tested are placed with 70 μl of the ALP Assay buffer and 50 μl of the 5 mM pNPP solution. In parallel, the calibration range was prepared by placing, in the same 96-well plate. The reaction was incubated for 60 min at 25° C., shielded from light. The reaction was stopped by adding 20 μl of the Stop Solution. The optical density was measured at 405 nm.
(§3) After the ALP enzymatic activity assay, a protein assay was performed in order to normalize the results of the ALP assay depending on the number of proteins. […] The optical density was measured at 565 nm to determine the amount of proteins.

[6] = tested on: MC3T3-E1 cells; test: Alkaline phosphatase (ALP) enzymatic activity assay, MC3T3-E1; format: cell-based, mouse; settings: MC3T3-E1, 13 days post-treatment
Description: as §1, §2, §3

## CCCO[C@H]1OC(CO)[C@@H](O[C@@H]2OC(CO)[C@@H](O)C(O)C2NC(C)=O)C(O)C1OC(C)=O (stereo partly drawn) [DP2, n-propyl, 2-O-acetyl-α-D-Glucopyranoside, 4-O-(2-acetamido-2-deoxy-β-D-glucopyranosyl)]
[1]
  pro-calcifying action on the smooth muscle cells: no pro-calcifying action
[2]
  delocalization of the acetate group: no delocalization of the acetate group has been observed
[3]
  cell viability, WST-1 test: no significant difference
[4]; 30 μM, listed as DP2R0
  percentage of mineralization of the HOb cells: 181.573±9.155%
[4]; 30 μM, listed as DP2R2
  percentage of mineralization of the HOb cells: 137.012±52.452% and 204.472% and 159.03±18.719%
[4]; 15 μM
  increase in calcification relative to the mineralizing condition: 26±10%
[4]; 30 μM
  increase in calcification relative to the mineralizing condition: 40±15%
[4]; 50 μM
  increase in calcification relative to the mineralizing condition: 8±17%
[4]; lower concentrations 5, 7.5 and 10 μM (FIG. 4)
  mineralization of the HOb cells relative to the mineralizing medium alone: decrease in mineralization
[5]; listed as DP2R0
  ALP enzymatic activity relative to the mineralized medium alone (100%): 210.494±14.979%
[5]; listed as DP2R2
  ALP enzymatic activity relative to the mineralized medium alone (100%): 149.749%
[6]; 15 μM
  ALP enzymatic activity relative to the mineralized medium alone (100%): 118.907±10.466%
[6]; printed 15 μM (second mention)
  ALP enzymatic activity relative to the mineralized medium alone (100%): 148.833±15.761%
